Assays:
Test in all cases: relative viability (nuclei count vs DMSO), 5 days (fraction); higher = more cells survive
[1] = compound: COc1cccc2c1C(=O)c1c(O)c3c(c(O)c1C2=O)C[C@@](O)(C(=O)CO)C[C@@H]3O[C@H]1C[C@H](N)[C@H](O)[C@H](C)O1 [Doxorubicin] + COc1cccc2cc(-c3nc([C@H]4CC[C@H](C(=O)O)CC4)n4ncnc(N)c34)[nH]c12 [OSI-027] (partner 0.5 µM)
How it was run: (§1)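 Relative viability is defined as nuclei in treated wells over nuclei in vehicle wells. Duplicate plates were run and medians reported. Lung cancer cell lines in 1536-well plates were dosed by pin tool one day after seeding, with one drug or with a fixed anchor-drug dose plus five library-drug doses (not always all listed) in √10 steps, and nuclei were counted after 5 days.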

[2] = compound: COC1=C(C=C(C=C1)C2=CC3=NC=CN3C(=N2)NC4=C(C=CC=N4)C(=O)N)OC [BAY61-3606] + CS(=O)(=O)N1CCN(Cc2cc3nc(-c4cccc5[nH]ncc45)nc(N4CCOCC4)c3s2)CC1 [Pictilisib] (partner 1 µM)
How it was run: as §1

[3] = compound: COc1cccc2c1C(=O)c1c(O)c3c(c(O)c1C2=O)C[C@@](O)(C(=O)CO)C[C@@H]3O[C@H]1C[C@H](N)[C@H](O)[C@H](C)O1 [Doxorubicin] + NC(=O)Nc1cc(-c2cccc(F)c2)sc1C(=O)N[C@H]1CCCNC1 [AZD7762] (partner 0.2 µM)
How it was run: as §1

[4] = compound: COC1=C(C=C(C=C1)C2=CC3=NC=CN3C(=N2)NC4=C(C=CC=N4)C(=O)N)OC [BAY61-3606] + CCNC(=O)c1noc(-c2cc(C(C)C)c(O)cc2O)c1-c1ccc(CN2CCOCC2)cc1 [Luminespib] (partner 0.01 µM)
How it was run: as §1

| Cell Line | relative viability ([1]; first compound 0.001 µM) | relative viability ([1]; first compound 0.003162 µM) | relative viability ([1]; first compound 0.01 µM) | relative viability ([1]; first compound 0.03162 µM) | relative viability ([1]; first compound 0.1 µM) | relative viability ([2]; first compound 0.02 µM) | relative viability ([2]; first compound 0.06325 µM) | relative viability ([2]; first compound 0.2 µM) | relative viability ([2]; first compound 0.6325 µM) | relative viability ([2]; first compound 2 µM) | relative viability ([3]; first compound 0.001 µM) | relative viability ([3]; first compound 0.003162 µM) | relative viability ([3]; first compound 0.01 µM) | relative viability ([3]; first compound 0.03162 µM) | relative viability ([3]; first compound 0.1 µM) | relative viability ([4]; first compound 0.02 µM) | relative viability ([4]; first compound 0.06325 µM) | relative viability ([4]; first compound 0.2 µM) | relative viability ([4]; first compound 0.6325 µM) | relative viability ([4]; first compound 2 µM) |
| --- | --- | --- | --- | --- | --- | --- | --- | --- | --- | --- | --- | --- | --- | --- | --- | --- | --- | --- | --- | --- |
| NCI-H2126 | 0.538 | 0.701 | 0.642 | 0.662 | 0.651 | 0.543 | 0.503 | 0.492 | 0.51 | 0.447 | 0.913 | 0.921 | 0.966 | 0.985 | 1 | 0.964 | 0.916 | 0.869 | 1.07 | 0.731 |
| NCI-H2170 | 0.25 | 0.809 | 0.745 | 0.614 | 0.795 | 0.368 | 0.28 | 0.308 | 0.389 | 0.265 | 0.825 | 0.95 | 0.792 | 0.626 | 0.961 | 0.796 | 0.717 | 0.761 | 0.852 | 0.506 |
| NCI-H2347 | 0.469 | 0.405 | 0.433 | 0.523 | 0.35 | 0.715 | 0.495 | 0.801 | 0.746 | 0.892 | 0.618 | 0.895 | 0.668 | 0.686 | 0.58 | 0.373 | 0.362 | 0.386 | 0.658 | 0.412 |
| NCI-H2405 | 0.607 | 0.645 | 0.654 | 0.629 | 0.509 | 0.623 | 0.308 | 0.379 | 0.371 | 0.43 | 0.785 | 0.802 | 0.801 | 0.682 | 0.381 | 0.736 | 0.569 | 0.716 | 0.739 | 0.485 |
| NCI-H3122 | 0.489 | 0.89 | 0.819 | 0.382 | 0.314 | 0.621 | 0.632 | 0.568 | 0.59 | 0.619 | 0.964 | 1.03 | 0.894 | 0.989 | 0.952 | 0.121 | 0.0764 | 0.0868 | 0.099 | 0.0933 |
| PC-3 [JPC-3] | 0.797 | 0.729 | 0.747 | 0.733 | 0.801 | 0.784 | 0.695 | 0.695 | 0.678 | 0.561 | 0.901 | 0.927 | 0.96 | 0.762 | 0.585 | – | 0.81 | 0.746 | 0.659 | 0.709 |
| PC-14 | 0.683 | 1.14 | 0.865 | 0.161 | 0.0612 | 0.647 | 0.605 | 0.654 | 0.994 | 0.589 | 0.387 | 0.366 | 0.519 | 0.259 | 0.15 | 0.191 | – | 0.171 | 0.173 | 0.129 |
| RERF-LC-KJ | 0.643 | 0.556 | 0.544 | 0.302 | 0.261 | 0.532 | 0.411 | 0.59 | 0.577 | 0.441 | 1.04 | 1.1 | 0.872 | 0.866 | 0.896 | 1.22 | 1.45 | 1.2 | 1.3 | 0.849 |
